Measured values: patent publication US10682323B2, “Therapeutic agent for glaucoma” (TOA EIYO LTD., priority 2016, dated 2020)

Molecular target: T1, human sGC (Homo sapiens, UniProt Q02153)
T1 construct: expressed in transfected cells; host or cells: CHO-K1 cells (Chinese hamster ovary), stably co-expressing mouse CNGA2 as the calcium read-out channel
T1 sequence (Q02153 1-619): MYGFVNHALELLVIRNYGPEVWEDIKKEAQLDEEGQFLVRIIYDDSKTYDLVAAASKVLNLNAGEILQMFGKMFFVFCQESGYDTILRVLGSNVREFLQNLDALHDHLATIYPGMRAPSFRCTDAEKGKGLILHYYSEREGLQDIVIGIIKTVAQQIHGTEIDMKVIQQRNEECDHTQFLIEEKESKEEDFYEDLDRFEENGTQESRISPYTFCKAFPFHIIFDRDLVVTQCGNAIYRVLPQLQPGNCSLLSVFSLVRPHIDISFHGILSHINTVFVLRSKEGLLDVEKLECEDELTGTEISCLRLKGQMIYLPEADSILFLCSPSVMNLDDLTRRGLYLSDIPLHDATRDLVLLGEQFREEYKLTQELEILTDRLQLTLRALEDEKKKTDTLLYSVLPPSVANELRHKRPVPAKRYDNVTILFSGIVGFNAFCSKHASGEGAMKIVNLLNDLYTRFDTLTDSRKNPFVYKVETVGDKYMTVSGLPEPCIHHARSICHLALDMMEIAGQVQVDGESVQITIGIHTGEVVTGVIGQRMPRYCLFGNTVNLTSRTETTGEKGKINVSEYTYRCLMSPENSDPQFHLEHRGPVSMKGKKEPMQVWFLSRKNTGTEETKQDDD
T1 sequence (Q02108 1-690 partner): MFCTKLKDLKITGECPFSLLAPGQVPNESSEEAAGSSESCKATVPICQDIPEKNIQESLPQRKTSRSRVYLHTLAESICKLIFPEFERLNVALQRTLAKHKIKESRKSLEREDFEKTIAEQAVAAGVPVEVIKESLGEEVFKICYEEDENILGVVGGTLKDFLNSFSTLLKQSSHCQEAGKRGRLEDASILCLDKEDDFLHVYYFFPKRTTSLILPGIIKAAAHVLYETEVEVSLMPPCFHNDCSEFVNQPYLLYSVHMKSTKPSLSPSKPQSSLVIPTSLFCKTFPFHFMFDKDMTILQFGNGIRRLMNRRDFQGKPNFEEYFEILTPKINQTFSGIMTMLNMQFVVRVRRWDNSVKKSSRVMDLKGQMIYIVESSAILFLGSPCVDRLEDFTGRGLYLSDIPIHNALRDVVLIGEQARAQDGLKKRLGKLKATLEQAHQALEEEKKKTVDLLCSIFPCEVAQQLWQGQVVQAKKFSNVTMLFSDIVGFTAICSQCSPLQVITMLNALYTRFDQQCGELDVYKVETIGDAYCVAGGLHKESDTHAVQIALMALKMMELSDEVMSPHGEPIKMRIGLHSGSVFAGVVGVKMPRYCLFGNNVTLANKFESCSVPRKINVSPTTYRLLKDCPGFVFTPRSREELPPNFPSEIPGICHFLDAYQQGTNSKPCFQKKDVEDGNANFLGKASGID
Assay: Measurement of sGC activating effect in CHO-K1 cells stably expressing human sGC and mouse CNGA2
Format: cell-based
Settings: CHO-K1 cells expressing human sGC and mouse CNGA2, Fura2 calcium readout, 10 μmol/L ODQ in assay buffer
Method: Chinese Hamster ovary cells (CHO-K1 cells) modified for stably expressing human sGC α subunit and β subunit, and a mouse cyclic nucleotide gated channel (CNGA2) were used in the test.
The CHO-K1 cells stably expressing human sGC and mouse CNGA2 were cultured at 37° C. in a F-12 medium supplemented with 10% (v/v) fetal bovine serum (FBS), penicillin (100 U/mL), streptomycin (100 μg/mL), G418 (250 μg/mL), and Zeocin (250 μg/mL). The cells were suspended in a culture medium, seeded in a 96 well plate, and cultured at 37° C. for 24 hours. The cells were washed with an assay buffer 1 (140 mmol/L of sodium chloride, 5 mmol/L of potassium chloride, 0.5 mmol/L of magnesium chloride, 0.01 mmol/L of calcium chloride, 10 mmol/L of glucose, 0.4 mmol/L of magnesium sulfate, 10 mmol/L of 4-(2-hydroxyethyl)piperazine-1-yl ethanesulfonic acid, 125 μmol/L of sulfinpyrazone, pH 7.4), and then an indicator solution in which Fura2-AM as a fluorescent Ca2+ indicator is dissolved in assay buffer 1 at a concentration of 5 μmol/L was added thereto, and cultured at 37° C. for 60 minutes. The culture medium was removed, the cells were washed with assay buffer 1, the test compound solution was added thereto, and cultured at room temperature for 10 minutes. The plate was mounted on a fluorescence microplate reader (FlexStation II, available from Molecular Devices) with setting of excitation wavelengths of 340 and 380 nm and a detection wavelength of 510 nm, an intracellular calcium concentration was measured as a fluorescent intensity ratio obtained from each excitation wavelength.
In this test, the solution of the test compound was prepared by dissolving each test compound in DMSO at a concentration of 10 mmol/L, and then diluting the solution with assay buffer 2 (140 mmol/L of sodium chloride, 5 mmol/L of potassium chloride, 0.5 mmol/L of magnesium chloride, 1 mmol/L of calcium chloride, 10 mmol/L of glucose, 0.4 mmol/L of magnesium sulfate, 10 mmol/L of 4-(2-hydroxyethyl)piperazine-1-yl ethanesulfonic acid, 125 μmol/L of sulfinpyrazone, 100 μmol/L of isobutylmethylxanthine, 10 μmol/L of 1H-[1,2,4]-oxadiazole [4,3-a]quinoxaline-1-on (hereinafter, referred to as ODQ), pH 7.4), in order to adjust the concentration of 10 μmol/L for testing. As a control solution, a DMSO diluted solution was used, instead of the test compound solution.
The activity of the test compound was calculated as an increase rate (%) of the sGC activity in the test compound solution relative to the sGC activity in the control solution, by dividing a fluorescent intensity ratio in adding the test compound by a fluorescent intensity ratio of the control solution, and subtracting the sGC activity in the control solution (100%) therefrom. An EC50 value was calculated from the activity of the test compound at concentrations of 0.0001, 0.001, 0.003, 0.01, 0.03, 0.1, 1, and 10 μmol/L, using a 4 parameter losgistic model from Assay Explorer (available from Dssault Systèmes BIOVIA).

| Structure (SMILES) | EC50 [nM] |
| --- | --- |
| CC(C)(C)c1cc(CO[C@@H](CN(CCCCC(=O)O)Cc2ccc(C(=O)O)cc2)c2ccccc2)cc(C(C)(C)C)c1 [Comparative Compound 4, reference compound] | 0.46 |
| N#Cc1cccc([C@H](CN(CCCCC(=O)O)Cc2ccc(C(=O)O)cc2)OCc2ccc(Oc3ccccc3)cc2)c1 [Comparative Compound 3, reference compound] | 7.01 |
| O=C(O)CCCCN(CCc1ccccc1OCc1ccc(CCc2ccccc2)cc1)C1COc2cc(C(=O)O)ccc21 (stereo not shown) [Comparative Compound 2, reference compound] | 19.4 |
| O=C(O)CCCCN(Cc1ccc(C(=O)O)cc1)C[C@H](OCc1ccc(CCc2ccccc2)cc1)c1ccccc1 [Compound No. 14, (−)-4-([N-(4-carboxybutyl)-N-[(2R)-2-[4-(2-phenylethyl)benzyloxy]-2-phenylethyl]amino]methyl)benzoic acid] | 5.71 |

Continued by falling EC50, values first:

| EC50 [nM] | Structure (SMILES) |
| --- | --- |
| 8.84 | O=C(O)CCCCN(CCc1ccccc1OCc1ccc(CCc2ccccc2)cc1)Cc1ccc(C(=O)O)cc1 [Comparative Compound 1, reference compound] |
| 6.62 | O=C(O)CCCCN(CCc1ccccc1OCc1cccc2c1CCCC2)[C@H]1CCCc2cc(C(=O)O)ccc21 [Compound No. 8, (+)-(5S)-5-[N-(4-carboxybutyl)-N-[2-[2-(5,6,7,8-tetrahydronaphthalene-1-ylmethoxy)phenyl]ethyl]amino]-5,6,7,8-tetrahydronaphthalene-2-carboxylic acid] |
| 3.14 | O=C(O)CCCCN(Cc1ccc(C(=O)O)cc1)C[C@H](OCc1ccc(CCc2ccc(Cl)cc2)cc1)c1ccccc1 [Compound No. 6, (−)-4-([N-(4-carboxybutyl)-N-[(2R)-2-[4-[2-(4-chlorophenyl)ethyl]benzyloxy]-2-phenylethyl]amino]methyl)benzoic acid] |
